Test results reported in PMC5719431, “Structural insights into the potency of SK channel positive modulators” (Scientific Reports, 2017).

How the values were obtained:
[1] = biological target: T1, SK2-a channel (SK2, KCa2.2) co-expressed with CaM (Rattus norvegicus, UniProt P0DP29+P70604); assay: inside-out patch clamp, potentiation of SK2 current; type: cell-based
T1 construct: gene Kcnn2; full-length SK2-a co-transfected with CaM and GFP in TsA201 cells; tetrameric channel

[2] = biological target: T2, CaM/CaMBD complex (CaM and SK2 channel fragment R395–Q486) (Rattus norvegicus, UniProt P0DP29+P70604); assay: X-ray crystal structure (soaked crystals); type: binding; settings: Ca2+-CaM, site at interface of CaMBD and CaM N-lobe
T2 construct: gene Kcnn2; both expressed in E. coli Rosetta-2
T2 sequence (P70604 396-487, one chain of several): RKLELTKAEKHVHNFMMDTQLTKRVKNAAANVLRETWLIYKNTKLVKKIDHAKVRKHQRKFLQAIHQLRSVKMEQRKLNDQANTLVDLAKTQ

T1 sequence (P70604 whole entry, one chain of several): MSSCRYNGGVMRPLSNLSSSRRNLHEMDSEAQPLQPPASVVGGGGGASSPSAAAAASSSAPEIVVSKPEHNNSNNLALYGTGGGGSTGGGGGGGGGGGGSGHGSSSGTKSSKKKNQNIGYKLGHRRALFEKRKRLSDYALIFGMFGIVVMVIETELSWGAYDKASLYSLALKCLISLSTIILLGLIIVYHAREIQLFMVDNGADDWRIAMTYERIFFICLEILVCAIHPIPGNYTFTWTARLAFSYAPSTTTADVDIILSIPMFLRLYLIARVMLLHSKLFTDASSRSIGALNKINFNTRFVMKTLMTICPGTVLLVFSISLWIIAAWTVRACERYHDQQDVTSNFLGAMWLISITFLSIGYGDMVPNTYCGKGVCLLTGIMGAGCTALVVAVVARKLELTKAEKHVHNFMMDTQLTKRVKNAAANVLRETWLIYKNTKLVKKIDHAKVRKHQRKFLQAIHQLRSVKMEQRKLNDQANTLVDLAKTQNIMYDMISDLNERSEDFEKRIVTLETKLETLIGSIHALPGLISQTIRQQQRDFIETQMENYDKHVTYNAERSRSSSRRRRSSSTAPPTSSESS

EC50 [1] [µM]	SMILES	X-ray crystal structure (soaked crystals) ([2]; soaked about 5 months)	X-ray crystal structure (soaked crystals) ([2]; soaked about 1 month)
0.552 ± 0.083	O=C1Nc2c(ccc(Cl)c2Cl)C1=NO [NS309]		
33.2 ± 4.8	O=C1Nc2c(F)cccc2C1=NO [SKS-14, 7-fluoro-3-(hydroxyimino)indolin-2-one]	crystal structures of SKS-11 and SKS-14 in complex with their binding pocket	
3.87 ± 0.88	Cc1cc2c(cc1Br)NC(=O)C2=NO [SKS-11, 6-bromo-5-methyl-1H-indole-2,3-dione-3-oxime]		crystal structures of SKS-11 and SKS-14 in complex with their binding pocket
